# In article PMC7463537, “Synthesis and Evaluation of Antimicrobial and Cytotoxic Activity of Oxathiine-Fused Quinone-Thioglucoside Conjugates of Substituted 1,4-Naphthoquinones” (Molecules, 2020):
# Columns and labels:
# [1] = system: S. aureus ATCC 21027; assay: Agar diffusion method, S. aureus; format: cell-based, Staphylococcus aureus; parameters: key to Diameter of Zone Inhibition, S. aureus: Zones within 20–40 mm mean strong antibiotic activity; zones up to 20 mm—moderate; ≤10 mm—weak; +—insignificant; settings: for zone of inhibition at 100 µg/disc / zone of inhibition at 1 µg/disc: Staphylococcus aureus, read-out: Diameter of Zone Inhibition, S. aureus; for zone of inhibition at 100 µg/disc: ATCC21027, 24 h, 100 µg/well, 24 h, incl. 7 mm well; for zone of inhibition at 1 µg/disc: ATCC21027, 1 µg/well
# Method: (§1) Elyakov Pacific Institute of Bioorganic Chemistry, Far East Branch, Russian Academy of Sciences. Test substances were dissolved in DMSO at concentrations of 1.0, 0.1, and 0.01 mg/mL. All strains were grown on trypticase-soy agar TSA (BBL) at 37 °C. […] After incubation of the dishes at 37 °C for 24 h (for bacteria) and 48 h (for the fungus) at 28 °C, the diameters of the growth inhibition zones of pathogenic microorganisms (mm) were measured, including the diameter of the wells. Commercial antibacterial drugs (vancomicin and gentamicin) and antifungal (clotrimazol) drugs were used as positive controls.
# [2] = system: B. cereus ATCC 10702; assay: Agar diffusion method, B. cereus; format: cell-based, Bacillus cereus; parameters: key to Diameter of Zone Inhibition, B. cereus: Zones within 20–40 mm mean strong antibiotic activity; zones up to 20 mm—moderate; ≤10 mm—weak; +—insignificant; settings: for zone of inhibition at 100 µg/disc / zone of inhibition at 1 µg/disc: Bacillus cereus, read-out: Diameter of Zone Inhibition, B. cereus; for zone of inhibition at 100 µg/disc: ATCC10702, 24 h, 100 µg/well, 24 h, incl. 7 mm well; for zone of inhibition at 1 µg/disc: ATCC10702, 1 µg/well; for Diameter of Zone Inhibition, B. cereus: 1 µg/well
# Method: as §1
# [3] = system: P. aeruginosa ATCC 27853; assay: Agar diffusion method, P. aeruginosa; format: cell-based, Pseudomonas aeruginosa; settings: Pseudomonas aeruginosa, ATCC27853, 100 µg/well; read-out: Diameter of Zone Inhibition, P. aeruginosa
# Method: as §1
# [4] = system: E. coli K-12; assay: Agar diffusion method, E. coli; format: cell-based, Escherichia coli; settings: Escherichia coli, K12; 100 µg/well; read-out: Diameter of Zone Inhibition, E. coli
# Method: as §1
# [5] = system: C. albicans KMM 453; assay: Agar diffusion method, C. albicans; format: cell-based; settings: Candida albicans, KMM453, 48 h, 100 µg/well, 48 h at 28 °C; read-out: Diameter of Zone Inhibition, C. albicans
# Method: as §1
# [6] = system: human cervical cancer (HeLa); assay: Cytotoxicity, MTT assay, HeLa cells; settings: for EC50: Homo sapiens, HeLa, 24 h, read-out: Cytotoxicity (EC50), HeLa; for Selectivity Index (SI), HeLa: SI = EC50 (Jb6 Cl 41-5a normal cells)/EC50 (tumor cells)
# [7] = system: mouse neuroblastoma (Neuro 2a); assay: Cytotoxicity, MTT assay, Neuro 2a cells; settings: for EC50: N2a, 24 h, read-out: Cytotoxicity (EC50), Neuro 2a; for Selectivity Index (SI), Neuro-2a: SI = EC50 (Jb6 Cl 41-5a normal cells)/EC50 (tumor cells)
# [8] = Cytotoxicity, MTT assay, Jb6 Cl 41-5a normal epithelial cells; settings: mouse, Jb6 Cl 41-5a normal epithelial cells
# [9] = Cytotoxicity, statements of the text over all tested cell lines; settings: human, mouse
# [10] = system: mouse ascites Ehrlich carcinoma; assay: Cytotoxicity, nonspecific esterase (FDA) assay, ascites Ehrlich carcinoma cells; settings: for EC50: Mus musculus, Ehrlich, 24 h, read-out: Cytotoxicity (EC50), Ascites Ehrlich Carcinoma; for Selectivity Index (SI), Ascitic Ehrlich Carcinoma: SI = EC50 (Jb6 Cl 41-5a normal cells)/EC50 (tumor cells)
# [11] = system: Gram-positive bacteria (S. aureus, B. cereus); assay: Agar diffusion method, Gram-positive strains; format: cell-based, Staphylococcus aureus, Bacillus cereus; settings: for zone of inhibition at 100 µg/disc: Staphylococcus aureus, 100 µg/well, read-out: Antimicrobial activity / inhibition zone diameter, Gram-positive bacteria; for Antimicrobial activity / inhibition zone diameter, Gram-positive bacteria: 10 µg/well; for Antimicrobial activity, Gram-positive strains: dilution to 1 µg/well
# Method: as §1
# [12] = system: S. aureus ATCC 21027; assay: Minimum inhibitory concentration, broth microdilution; format: cell-based, Staphylococcus aureus; settings: for Selectivity index (SI) against S. aureus: SI = EC50 (normal Jb6 Cl 41-5a cells)/MIC; for MIC: Staphylococcus aureus, ATCC21027, broth microdilution, 24 h, read-out: Minimum inhibitory concentration (MIC) against S. aureus
# Method: Stocks of substances were prepared in DMSO at a concentration of 10 mM. All studied compounds were tested in concentrations from 1.5 μM to 100 μM using twofold dilution. All tested compounds were add to the wells of the plates in a volume of 20 μL diluted in PBS (DMSO concentration < 1%). The bacterial culture of S. aureus ATCC 21027 (Collection of Marine Microorganisms PIBOC FEB RAS) was cultured in a Petri dish at 37 °C for 24 h on solid medium with the following composition; pepton—5.0 g/L, K2HPO4—0.2 g/L, glucose—1.0 g/L, MgSO4—0.05 g/L, yeast extract—1 g/L, agar—16.0 g/L, and distilled water—1.0 L. The pH of the medium was adjusted to 7.2–7.4 with NaOH solution.
# The antimicrobial activity of the compounds was determined by the minimum inhibitory concentration (MIC) according to the method adopted by the Clinical and Laboratory Standards Institute (CLSI). Methods for dilution antimicrobial susceptibility tests for bacteria that grow aerobically followed the approved standard—tenth edition. CLSI document M07-A10, PA: Clinical and Laboratory Standards Institute; 2015, with a slight modification of the medium. The assays were performed in 96-well microplates in appropriate broth (pepton—5.0 g/L, K2HPO4—0.2 g/L, glucose—1.0 g/L, MgSO4—0.05 g/L, yeast extract—1 g/L, casein hydrolyzate—2.5 g/L, distilled water—1L). […] The MIC value is defined as the lowest concentration of compounds resulting in the complete inhibition of bacterial growth by measuring the absorbance at 600 nm with a microplate reader (BioTek, Winooski, Vt, USA). All experiments were performed twice in triplicate. Gentamicin was used as a positive control in concentration 1 mg/mL; 1% DMSO solution in PBS as a negative. The selectivity index for S. aureus has been defined as the ratio of EC50 for normal cells and the MIC value for the bacterial culture (SI = EC50/MIC).
Compound,zone of inhibition at 100 µg/disc [1],zone of inhibition at 100 µg/disc [2],zone of inhibition at 100 µg/disc [3],zone of inhibition at 100 µg/disc [4],zone of inhibition at 100 µg/disc [5],EC50 [6],"Selectivity Index (SI), HeLa [6]",EC50 [7],"Selectivity Index (SI), Neuro-2a [7]",EC50 at 24 h [8],EC50 [10],"Selectivity Index (SI), Ascitic Ehrlich Carcinoma [10]",Selectivity index (SI) against S. aureus [12],MIC [12],melting point,zone of inhibition at 1 µg/disc [1],other results
"O=C1C2=C(S[C@@H]3O[C@H](CO)[C@@H](O)[C@H](O)[C@H]3O2)C(=O)c2c(O)cccc21 [Compound 19a, (2R,3S,4S,4aR,12aS)-3,4,10-Trihydroxy-2-hydroxymethyl-3,4,4a,12a-tetrahydro-2H-naphtho[2,3-b]pyrano[2,3-e][2,5]oxathiine-6,11-dione]",0 mm,0 mm,0 mm,0 mm,0 mm,3700 nM,1.5,4100 nM,1.4,5600 nM,600 nM,9.3,,,,,EC50 at 24 h [9]: 600 to 900 nM
"O=C1C2=C(S[C@@H]3O[C@H](CO)[C@H](O)[C@H](O)[C@H]3O2)C(=O)c2c(O)cccc21 [Compound 19b, (2R,3R,4S,4aR,12aS)-3,4,10-Trihydroxy-2-hydroxymethyl-3,4,4a,12a-tetrahydro-2H-naphtho[2,3-b]pyrano-[2,3-e][2,5]oxathiine-6,11-dione]",0 mm,8 ± 2 mm,0 mm,0 mm,0 mm,2700 nM,0.3,2300 nM,0.4,900 nM,700 nM,1.3,,,,,zone of inhibition at 100 µg/disc [11]: ≤ 10 mm; EC50 at 24 h [9]: 600 to 900 nM
"O=C1C2=C(S[C@@H]3OC[C@H](O)[C@H](O)[C@H]3O2)C(=O)c2c(O)cccc21 [Compound 19d, (3S,4S,4aR,12aS)-3,4,10-Trihydroxy-3,4,4a,12a-tetrahydro-2H-naphtho[2,3-b]pyrano[2,3-e][2,5]oxathiine-6,11-dione]",20 ± 3 mm,25 ± 2 mm,0 mm,0 mm,0 mm,1300 nM,1.8,2200 nM,1,2300 nM,1100 nM,2.1,0.4,6.25 µM,319 to 321 °C,,zone of inhibition at 100 µg/disc [11]: 20 to 40 mm
"O=C1C2=C(O[C@@H]3[C@@H](O)[C@H](O)[C@@H](CO)O[C@H]3S2)C(=O)c2c(O)cccc21 [Compound 20a, (2R,3S,4S,4aR,12aS)-3,4,7-Trihydroxy-2-(hydroxymethyl)-3,4,4a,12a-tetrahydro-2H-naphtho[2,3-b]pyrano-[2,3-e][2,5]oxathiine-6,11-dione]",30 ± 2 mm,22 ± 1 mm,0 mm,0 mm,0 mm,6300 nM,0.1,700 nM,1,700 nM,2700 nM,0.3,,25 µM,274 to 276 °C,0 mm,zone of inhibition at 1 µg/disc [2]: 0 mm
"O=C1C2=C(O[C@@H]3[C@@H](O)[C@@H](O)[C@@H](CO)O[C@H]3S2)C(=O)c2c(O)cccc21 [Compound 20b, (2R,3R,4S,4aR,12aS)-3,4,7-Trihydroxy-2-hydroxymethyl-3,4,4a,12a-tetrahydro-2H-naphtho[2,3-b]pyrano[2,3-e][2,5]oxathiine-6,11-dione]",30 ± 2 mm,20 ± 1 mm,0 mm,0 mm,0 mm,4700 nM,0.1,1200 nM,0.4,500 nM,1100 nM,0.5,,25 µM,293 to 295 °C,0 mm,zone of inhibition at 1 µg/disc [2]: 0 mm
"O=C1C2=C(O[C@@H]3[C@@H](O)[C@H](O)CO[C@H]3S2)C(=O)c2c(O)cccc21 [Compound 20c, (3R,4S,4aR,12aS)-3,4,7-Trihydroxy-3,4,4a,12a-tetrahydro-2H-naphtho[2,3-b]pyrano[2,3-e][2,5]oxathiine-6,11-dione]",30 ± 2 mm,25 ± 1 mm,0 mm,0 mm,8 ± 1 mm,2300 nM,0.1,2200 nM,0.1,300 nM,700 nM,0.4,0.02,12.5 µM,,,"Diameter of Zone Inhibition, S. aureus ([1]; 1 µg/well): +; Diameter of Zone Inhibition, B. cereus [2]: +; Antimicrobial activity / inhibition zone diameter, Gram-positive bacteria [11]: comparable with antibiotics vancomicin and gentamicin; Antimicrobial activity, Gram-positive strains [11]: residual effect"
"O=C1C2=C(O[C@@H]3[C@@H](O)[C@@H](O)CO[C@H]3S2)C(=O)c2c(O)cccc21 [Compound 20d, (3S,4S,4aR,12aS)-3,4,7-Trihydroxy-3,4,4a,12a-tetrahydro-2H-naphtho[2,3-b]pyrano[2,3-e][2,5]oxathiine-6,11-dione]",40 ± 2 mm,30 ± 3 mm,0 mm,0 mm,0 mm,400 nM,1.75,1400 nM,0.5,700 nM,1200 nM,0.6,0.1,6.25 µM,,0 mm,"Diameter of Zone Inhibition, B. cereus [2]: +; Antimicrobial activity / inhibition zone diameter, Gram-positive bacteria [11]: comparable with antibiotics vancomicin and gentamicin; Antimicrobial activity, Gram-positive strains [11]: residual effect"
